Measurements taken from patent US5519015A, “Carbapenem antibiotic compounds” (Zeneca Limited, priority 1992, dated 1996).
In brackets after ≈: the same amount, converted by molar mass.

Key:
Format in all cases: cell-based
[1] = test system: S. aureus Oxford; assay: MIC by agar-dilution technique, Diagnostic Sensitivity Test, S. aureus Oxford; conditions: Staphylococcus aureus, inoculum 10^4 CFU/spot
Excerpt: (§1) The following results were obtained for representative compounds on a standard in vitro test system using Diagnostic Sensitivity Test. The antibacterial activity is described in terms of the minimum inhibitory concentration (MIC) determined by the agar-dilution technique with an inoculum size of 10^4 CFU/spot.

[2] = test system: E. coli DCO; assay: MIC by agar-dilution technique, Diagnostic Sensitivity Test, E. coli DCO; conditions: Escherichia coli, inoculum 10^4 CFU/spot
Excerpt: as §1

[3] = test system: P. morganii I + 001; assay: MIC by agar-dilution technique, Diagnostic Sensitivity Test, P. morganii I + 001; conditions: Morganella morganii, inoculum 10^4 CFU/spot
Excerpt: as §1

[4] = test system: Enterobacter cloacae P99-; assay: MIC by agar-dilution technique, Diagnostic Sensitivity Test, Enterobacter cloacae P99-
Excerpt: as §1

[5] = test system: B. fragilis AMP S; assay: MIC by agar-dilution technique, Diagnostic Sensitivity Test, B. fragilis AMP S; conditions: Bacteroides fragilis, inoculum 10^4 CFU/spot
Excerpt: as §1

SMILES: C[C@@H](O)[C@H]1C(=O)N2C(C(=O)O)=C(S[C@@H]3CN[C@H](C(=O)Nc4csc(C(=O)O)c4)C3)[C@H](C)[C@H]12 [Example 1, (1R,5S,6S,8R,2'S,4'S)-2-(2-(2-Carboxy-4-thienylcarbamoyl)pyrrolidin-4-ylthio)-6-(1-hydroxyethyl)-1-methylcarbapenem-3-carboxylic acid]
- MIC [1]: 125 ng/mL (≈ 0.26 µM)
- MIC [2]: 8 ng/mL (≈ 0.0166 µM)
- MIC [3]: 8 ng/mL
- MIC [4]: 8 ng/mL (≈ 0.0166 µM)
- MIC [5]: 125 ng/mL (≈ 0.26 µM)
